In PubChem BioAssay (NCI):
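Five concentrations, 48 hours, 96-well plates. At the TGI there is no net growth.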

Experiments:
Experiment in all cases: NCI-60 cell line screen, 48 h
DU-145 prostate = test system: DU-145 prostate
U251 CNS = test system: U251 CNS
SN12C renal = test system: SN12C renal
IGROV1 ovarian = test system: IGROV1 ovarian
BT-549 breast = test system: BT-549 breast
RPMI-8226 leukemia = test system: RPMI-8226 leukemia
SNB-19 CNS = test system: SNB-19 CNS
HOP-62 NSCLC = test system: HOP-62 NSCLC
HS 578T breast = test system: HS 578T breast
SW-620 colon = test system: SW-620 colon
K-562 leukemia = test system: K-562 leukemia
MOLT-4 leukemia = test system: MOLT-4 leukemia
HCC-2998 colon = test system: HCC-2998 colon
SF-268 CNS = test system: SF-268 CNS
HL-60(TB) leukemia = test system: HL-60(TB) leukemia
TK-10 renal = test system: TK-10 renal
HCT-15 colon = test system: HCT-15 colon
NCI-H226 lung = test system: NCI-H226 lung
786-0 renal = test system: 786-0 renal
LOX IMVI melanoma = test system: LOX IMVI melanoma
SF-295 CNS = test system: SF-295 CNS
A498 renal = test system: A498 renal
A549 NSCLC = test system: A549 NSCLC
SR leukemia = test system: SR leukemia
NCI-H23 lung = test system: NCI-H23 lung
MDA-MB-435 = test system: MDA-MB-435
ACHN renal = test system: ACHN renal
UACC-62 melanoma = test system: UACC-62 melanoma
MDA-N = test system: MDA-N
SK-MEL-5 melanoma = test system: SK-MEL-5 melanoma
CAKI-1 renal = test system: CAKI-1 renal
OVCAR-3 ovarian = test system: OVCAR-3 ovarian
MALME-3M melanoma = test system: MALME-3M melanoma
UO-31 renal = test system: UO-31 renal
NCI-H522 lung = test system: NCI-H522 lung
HT29 colon = test system: HT29 colon
OVCAR-8 ovarian = test system: OVCAR-8 ovarian
MDA-MB-231 breast = test system: MDA-MB-231 breast
SF-539 CNS = test system: SF-539 CNS
EKVX NSCLC = test system: EKVX NSCLC
PC-3 prostate = test system: PC-3 prostate
HCT-116 colon = test system: HCT-116 colon
MCF7 breast = test system: MCF7 breast
COLO 205 colon = test system: COLO 205 colon
RXF 393 renal = test system: RXF 393 renal
UACC-257 melanoma = test system: UACC-257 melanoma
NCI/ADR-RES ovarian = test system: NCI/ADR-RES ovarian
HOP-92 NSCLC = test system: HOP-92 NSCLC
KM12 colon = test system: KM12 colon
OVCAR-4 ovarian = test system: OVCAR-4 ovarian
OVCAR-5 ovarian = test system: OVCAR-5 ovarian
SK-MEL-28 melanoma = test system: SK-MEL-28 melanoma
NCI-H460 lung = test system: NCI-H460 lung
M14 melanoma = test system: M14 melanoma
SK-MEL-2 melanoma = test system: SK-MEL-2 melanoma
SNB-75 CNS = test system: SNB-75 CNS
CCRF-CEM leukemia = test system: CCRF-CEM leukemia
SK-OV-3 ovarian = test system: SK-OV-3 ovarian

Q: Which TGI (DU-145 prostate) does the source give for `C=C(C)C[C@H](Sc1nc2ccccc2s1)[C@H](C)O` here?
A: > 100 µM

Q: What about the TGI (U251 CNS) of the same molecule?
A: > 100 µM

Q: And the TGI (SN12C renal)?
A: > 100 µM

Q: And the TGI (IGROV1 ovarian)?
A: > 100 µM

Q: What about the TGI (BT-549 breast) of the same molecule?
A: > 100 µM

Q: And the TGI (RPMI-8226 leukemia)?
A: 98.4 µM

Q: What about the TGI (SNB-19 CNS) of the same molecule?
A: > 100 µM

Q: What about the TGI (HOP-62 NSCLC) of the same molecule?
A: > 100 µM

Q: What about the TGI (HS 578T breast) of the same molecule?
A: > 100 µM

Q: What about the TGI (SW-620 colon) of the same molecule?
A: > 100 µM

Q: What about the TGI (K-562 leukemia) of the same molecule?
A: > 100 µM

Q: And the TGI (MOLT-4 leukemia)?
A: 43 µM

Q: What about the TGI (HCC-2998 colon) of the same molecule?
A: > 100 µM

Q: And the TGI (SF-268 CNS)?
A: > 100 µM

Q: And the TGI (HL-60(TB) leukemia)?
A: 44.9 µM

Q: What about the TGI (TK-10 renal) of the same molecule?
A: > 100 µM

Q: And the TGI (HCT-15 colon)?
A: > 100 µM

Q: What about the TGI (NCI-H226 lung) of the same molecule?
A: 74.1 µM

Q: What about the TGI (786-0 renal) of the same molecule?
A: > 100 µM

Q: And the TGI (LOX IMVI melanoma)?
A: > 100 µM

Q: What about the TGI (SF-295 CNS) of the same molecule?
A: > 100 µM

Q: What about the TGI (A498 renal) of the same molecule?
A: 79 µM

Q: What about the TGI (A549 NSCLC) of the same molecule?
A: > 100 µM

Q: And the TGI (SR leukemia)?
A: > 100 µM

Q: And the TGI (NCI-H23 lung)?
A: > 100 µM

Q: What about the TGI (MDA-MB-435) of the same molecule?
A: > 100 µM

Q: And the TGI (ACHN renal)?
A: > 100 µM

Q: What about the TGI (UACC-62 melanoma) of the same molecule?
A: > 100 µM

Q: What about the TGI (MDA-N) of the same molecule?
A: > 100 µM

Q: And the TGI (SK-MEL-5 melanoma)?
A: 36.8 µM

Q: What about the TGI (CAKI-1 renal) of the same molecule?
A: > 100 µM

Q: What about the TGI (OVCAR-3 ovarian) of the same molecule?
A: 75.7 µM

Q: What about the TGI (MALME-3M melanoma) of the same molecule?
A: 72 µM

Q: What about the TGI (UO-31 renal) of the same molecule?
A: > 100 µM

Q: What about the TGI (NCI-H522 lung) of the same molecule?
A: 81.9 µM

Q: What about the TGI (HT29 colon) of the same molecule?
A: > 100 µM

Q: What about the TGI (OVCAR-8 ovarian) of the same molecule?
A: > 100 µM

Q: What about the TGI (MDA-MB-231 breast) of the same molecule?
A: > 100 µM

Q: And the TGI (SF-539 CNS)?
A: > 100 µM

Q: And the TGI (EKVX NSCLC)?
A: > 100 µM

Q: What about the TGI (PC-3 prostate) of the same molecule?
A: 63.8 µM

Q: And the TGI (HCT-116 colon)?
A: > 100 µM

Q: And the TGI (MCF7 breast)?
A: > 100 µM

Q: And the TGI (COLO 205 colon)?
A: > 100 µM

Q: What about the TGI (RXF 393 renal) of the same molecule?
A: > 100 µM

Q: And the TGI (UACC-257 melanoma)?
A: > 100 µM

Q: And the TGI (NCI/ADR-RES ovarian)?
A: > 100 µM

Q: And the TGI (HOP-92 NSCLC)?
A: > 100 µM

Q: What about the TGI (KM12 colon) of the same molecule?
A: > 100 µM

Q: What about the TGI (OVCAR-4 ovarian) of the same molecule?
A: > 100 µM

Q: What about the TGI (OVCAR-5 ovarian) of the same molecule?
A: > 100 µM

Q: And the TGI (SK-MEL-28 melanoma)?
A: > 100 µM

Q: And the TGI (NCI-H460 lung)?
A: > 100 µM

Q: And the TGI (M14 melanoma)?
A: > 100 µM

Q: What about the TGI (SK-MEL-2 melanoma) of the same molecule?
A: 69.9 µM

Q: For `C=C1C[C@]23CC[C@@H]4C(CO)(CO)CC(=O)C[C@]4(C)[C@@H]2CC[C@H]1C3`, which TGI (DU-145 prostate) is on record?
A: > 100 µM

Q: And the TGI (U251 CNS)?
A: > 100 µM

Q: What about the TGI (SN12C renal) of the same molecule?
A: > 100 µM

Q: What about the TGI (IGROV1 ovarian) of the same molecule?
A: > 100 µM

Q: What about the TGI (BT-549 breast) of the same molecule?
A: > 100 µM

Q: And the TGI (RPMI-8226 leukemia)?
A: > 100 µM

Q: And the TGI (SNB-19 CNS)?
A: 35.9 µM

Q: What about the TGI (HOP-62 NSCLC) of the same molecule?
A: > 100 µM

Q: And the TGI (HS 578T breast)?
A: > 100 µM

Q: And the TGI (SW-620 colon)?
A: > 100 µM

Q: What about the TGI (K-562 leukemia) of the same molecule?
A: > 100 µM

Q: And the TGI (MOLT-4 leukemia)?
A: > 100 µM

Q: What about the TGI (HCC-2998 colon) of the same molecule?
A: > 100 µM

Q: What about the TGI (SF-268 CNS) of the same molecule?
A: > 100 µM

Q: And the TGI (HL-60(TB) leukemia)?
A: > 100 µM

Q: And the TGI (TK-10 renal)?
A: > 100 µM

Q: And the TGI (HCT-15 colon)?
A: > 100 µM

Q: What about the TGI (NCI-H226 lung) of the same molecule?
A: > 100 µM

Q: And the TGI (786-0 renal)?
A: > 100 µM

Q: What about the TGI (LOX IMVI melanoma) of the same molecule?
A: > 100 µM

Q: And the TGI (SF-295 CNS)?
A: > 100 µM

Q: And the TGI (A549 NSCLC)?
A: > 100 µM

Q: What about the TGI (SR leukemia) of the same molecule?
A: > 100 µM

Q: What about the TGI (NCI-H23 lung) of the same molecule?
A: > 100 µM

Q: What about the TGI (MDA-MB-435) of the same molecule?
A: > 100 µM

Q: And the TGI (ACHN renal)?
A: > 100 µM

Q: And the TGI (UACC-62 melanoma)?
A: > 100 µM

Q: And the TGI (MDA-N)?
A: > 100 µM

Q: And the TGI (CAKI-1 renal)?
A: > 100 µM

Q: And the TGI (SNB-75 CNS)?
A: > 100 µM

Q: What about the TGI (OVCAR-3 ovarian) of the same molecule?
A: > 100 µM

Q: What about the TGI (MALME-3M melanoma) of the same molecule?
A: > 100 µM

Q: And the TGI (UO-31 renal)?
A: > 100 µM

Q: What about the TGI (CCRF-CEM leukemia) of the same molecule?
A: > 100 µM

Q: What about the TGI (NCI-H522 lung) of the same molecule?
A: > 100 µM

Q: What about the TGI (HT29 colon) of the same molecule?
A: > 100 µM

Q: And the TGI (OVCAR-8 ovarian)?
A: > 100 µM

Q: What about the TGI (MDA-MB-231 breast) of the same molecule?
A: > 100 µM

Q: What about the TGI (SF-539 CNS) of the same molecule?
A: > 100 µM

Q: And the TGI (EKVX NSCLC)?
A: > 100 µM

Q: What about the TGI (PC-3 prostate) of the same molecule?
A: > 100 µM

Q: What about the TGI (HCT-116 colon) of the same molecule?
A: > 100 µM

Q: What about the TGI (MCF7 breast) of the same molecule?
A: > 100 µM

Q: And the TGI (COLO 205 colon)?
A: > 100 µM

Q: What about the TGI (SK-OV-3 ovarian) of the same molecule?
A: > 100 µM

Q: And the TGI (UACC-257 melanoma)?
A: > 100 µM

Q: And the TGI (NCI/ADR-RES ovarian)?
A: > 100 µM

Q: What about the TGI (HOP-92 NSCLC) of the same molecule?
A: > 100 µM

Q: And the TGI (OVCAR-4 ovarian)?
A: > 100 µM

Q: And the TGI (OVCAR-5 ovarian)?
A: > 100 µM

Q: What about the TGI (SK-MEL-28 melanoma) of the same molecule?
A: > 100 µM

Q: What about the TGI (NCI-H460 lung) of the same molecule?
A: > 100 µM

Q: And the TGI (M14 melanoma)?
A: > 100 µM

Q: What about the TGI (SK-MEL-2 melanoma) of the same molecule?
A: > 100 µM
